The values below come from patent US20260007133A1, “HERBICIDAL COMPOSITION COMPRISING AZINE COMPOUNDS” (BASF SE, priority 2022, published 2026).

Common to all, as to format: in vivo
Assay [1] has as its system Alopecurus myosuroides. Kind of assay: Greenhouse pre-emergence (PRE) herbicidal test on ALOMY. The settings on record: Alopecurus myosuroides, pre-emergence; for inhibition at 6.25 g/ha: read-out: % activity. How it is done:
(§1) The culture containers used were plastic pots containing loamy sand with approximately 3.0% of humus as substrate. The seeds of the test plants were sown separately for each species.
(§2) The containers were irrigated gently to promote germination and growth and subsequently covered with transparent plastic hoods until the plants had rooted.
(§3) Depending on the species, the plants were kept at 10-25° C. and 20-35° C., respectively.
(§4) The test period extended over 2 to 4 weeks. During this time, the plants were tended and their response to the individual treatments was evaluated.
(§5) Evaluation was carried out using a scale from 0 to 100. 100 means no emergence of the plants, or complete destruction of at least the above-ground parts, and 0 means no damage or normal course of growth. A good herbicidal activity is given at values of at least 70, and very good herbicidal activity is given at values of at least 85.
(§6) As indicated application was either post emergent (POST) at the respective growth stage (GS) of the weed (BBCH code), or pre-emergent (PRE). […]

For assay [2], the system named is Commelina benghalensis. Kind of assay: Greenhouse pre-emergence (PRE) herbicidal test on COMBE. The settings on record: Commelina benghalensis, pre-emergence, read-out: % activity. As for the experimental part:
as §1, §2, §3, §4, §5, §6

The test system of assay [3] is Echinochloa crus-galli. Kind of assay: Greenhouse pre-emergence (PRE) herbicidal test on ECHCG. Particulars: Echinochloa crus-galli, pre-emergence, 480 h, read-out: % activity. How it is done:
as §1, §2, §3, §4, §5, §6

In assay [4] the test system is Lolium multiflorum. Kind of assay: Greenhouse pre-emergence (PRE) herbicidal test on LOLMU. Particulars: Lolium multiflorum, pre-emergence, 480 h. How it is done:
as §1, §2, §3, §4, §5, §6

For assay [5], the system named is Setaria viridis. Kind of assay: Greenhouse pre-emergence (PRE) herbicidal test on SETVI. The settings on record: Setaria viridis, pre-emergence; for inhibition at 6.25 g/ha / inhibition at 12.5 g/ha: read-out: % activity.
Text: as §1
For the pre-emergence treatment, the active compounds, suspended or emulsified in water, were applied directly after sowing by means of finely distributing nozzles. The containers were irrigated gently to promote germination and growth and subsequently covered with transparent plastic hoods until the plants had rooted. This cover caused uniform germination of the test plants unless this was adversely affected by the active compounds.
as §3, §4, §5
(§7) If not stated differently, the respective components A and B, and if appropriate, C were formulated as a 5% by weight strength emulsion concentrate and, with addition of the amount of solvent system, introduced into the spray liquor used for applying the active compound.
as §6

For assay [6], the system named is Abutilon theophrasti. Kind of assay: Greenhouse post-emergence (POST) herbicidal test on ABUTH. The settings on record: for % activity: ABUTH POST. How it is done:
as §1
(§8) For the post-emergence treatment, the test plants were grown to a plant height of from 3 to 15 cm, depending on the plant habit, and only then treated with the active compounds which had been suspended or emulsified in water. To this end, the test plants were either sown directly, and grown in the same containers, or they were first grown separately as seedlings and transplanted into the test containers a few days prior to treatment.
as §3, §4, §5, §7, §6

For assay [7], the system named is Amaranthus retroflexus. Kind of assay: Greenhouse post-emergence (POST) herbicidal test on AMARE. As for the experimental part:
as §1, §8, §3, §4, §5, §7, §6

In assay [8] the test system is Echinochloa crus-galli. Kind of assay: Greenhouse post-emergence (POST) herbicidal test on ECHCG. The settings on record: Echinochloa crus-galli, post-emergence. How it is done: as §1, §8, §3, §4, §5, §7, §6
The test system of assay [9] is Geranium pusillum. Kind of assay: Greenhouse post-emergence (POST) herbicidal test on GERPU. The settings on record: Geranium pusillum, post-emergence. As for the experimental part: as §1, §8, §3, §4, §5, §7, §6
In assay [10] the test system is Ipomoea hederacea. Kind of assay: Greenhouse post-emergence (POST) herbicidal test on IPOHE. Particulars: for % activity: IPOHE POST. As for the experimental part:
as §1, §8, §3, §4, §5, §7
As indicated application was either post emergent (POST) at the respective growth stage (GS) of the weed (BBCH code), or pre-emergent (PRE).
Assessment was 20 days after treatment (DAT).

The test system of assay [11] is Digitaria sanguinalis. Description: Greenhouse post-emergence (POST) herbicidal test on DIGSA. The settings on record: for % activity: DIGSA POST. As for the experimental part: as §1, §8, §3, §4, §5, §7, §6
For assay [12], the system named is Euphorbia heterophylla. Kind of assay: Greenhouse post-emergence (POST) herbicidal test on EPHHL. The settings on record: for % activity: EPHHL POST. How it is done:
as §1, §8, §3, §4, §5, §7, §6

For assay [13], the system named is Abutilon theophrasti. Kind of assay: Greenhouse pre-emergence (PRE) herbicidal test on ABUTH. Particulars: Abutilon theophrasti, pre-emergence, 480 h, PRE, ABUTH, 20 DAT, read-out: solo application % activity. How it is done:
as §1, §2, §3, §4, §5, §6

The test system of assay [14] is Ambrosia artemisiifolia. Kind of assay: Greenhouse pre-emergence (PRE) herbicidal test on AMBEL. Particulars: Ambrosia artemisiifolia, pre-emergence, 480 h, PRE, AMBEL, 20 DAT, read-out: solo application % activity. How it is done:
as §1, §2, §3, §4, §5, §6

For assay [15], the system named is Euphorbia heterophylla. Description: Greenhouse pre-emergence (PRE) herbicidal test on EPHHL. The settings on record: Euphorbia heterophylla, pre-emergence, 480 h, PRE, EPHHL, 20 DAT, read-out: solo application % activity. As for the experimental part:
as §1, §2, §3, §4, §5, §6

Where [16] appears, read: Amaranthus retroflexus, post-emergence, read-out: % activity.

Where two headings read alike, the source gives them in different places.

For `CCC/C(=N\OCC)C1=C(O)CC(CC(C)SCC)CC1=O` (stereo not shown) [Sethoxydim, sethoxydim], the inhibition at 6.25 g/ha in [1] (480 h) is 20%; in [1] it was 20%; in assay [2], 0%; in assay [3], 10%; in assay [4] (read-out: % activity), 15%; in [5] (480 h) it was 5%. Besides, the inhibition at 6.25 g/ha in assay [5] is 5%. The inhibition at 12.5 g/ha in assay [3] is 40%; in assay [5] (480 h), 60%; in assay [5], 60%.

Consider `O=C(O)CNCP(=O)(O)O` [Glyphosate, glyphosate], for which the inhibition at 200 g/ha worked out at 25% in [6] (Abutilon theophrasti, post-emergence, read-out: % activity); 80% in assay [7] (setting [16]); 35% in assay [8] (read-out: % activity); 15% in assay [10] (Ipomoea hederacea, post-emergence, read-out: % activity). In addition, the inhibition at 100 g/ha in assay [7] (setting [16]) amounted to 10%; in [8] (read-out: % activity), 30%; in assay [9] (read-out: % activity), 45%.

For the compound `Cc1cccc(C2CC2)c1Oc1nnc(Cl)cc1OC(=O)N1CCOCC1` [Cyclopyrimorate, cyclopyrimorate], the “% activity” value amounted to 5% in [6] (use rate 25 gai/ha), 10% in assay [11] (use rate 25 gai/ha), 40% in [11] (use rate 200 gai/ha) and 40% in assay [10] (use rate 25 gai/ha).

Turning to `CN1C[C@H](c2cccc(C(F)(F)F)c2)[C@@H](C(=O)Nc2ccccc2F)C1=O` [Tetflupyrolimet, tetflupyrolimet], the “% activity” value is listed as 5% in [6] (use rate 250 gai/ha); 35% in assay [7] (AMARE POST, use rate 250 gai/ha); 0% in [12] (use rate 31.25 gai/ha); 0% in assay [12] (use rate 250 gai/ha); 0% in assay [10] (use rate 31.25 gai/ha).

In the case of `C#CCN1C(=O)COc2cc(F)c(N3C(=O)C4=C(CCCC4)C3=O)cc21` [Flumioxazin, flumioxazin], the inhibition at […] in assay [13] (use rate 0.25 gai/ha) was 0%; in assay [1] (480 h, PRE, ALOMY, use rate 0.25 gai/ha, 20 DAT, read-out: solo application % activity), 0%; in [15] (use rate 0.25 gai/ha) it was 0%. Moreover, the inhibition at 0.5 g/ha in assay [13] (use rate 0.5 gai/ha) was 0%; in [1] (480 h, PRE, ALOMY, use rate 0.5 gai/ha, 20 DAT, read-out: solo application % activity) it was 0%; in [14] (use rate 0.5 gai/ha) it was 0%; in [15] (use rate 0.5 gai/ha), 5%; in [4] (PRE, LOLMU, use rate 0.5 gai/ha, 20 DAT, read-out: solo application % activity), 0%; in assay [5] (480 h, PRE, SETVI, use rate 0.5 gai/ha, 20 DAT, read-out: solo application % activity), 0%. Also, the inhibition at 0.5 g/ha in [8] (480 h, POST, ECHCG, use rate 0.5 gai/ha, 20 DAT, read-out: solo application % activity) is 0%. For the same compound, the inhibition at 1 g/ha in assay [13] (use rate 1 gai/ha) is 0%; in [15] (use rate 1 gai/ha), 5%; in assay [5] (480 h, PRE, SETVI, use rate 1 gai/ha, 20 DAT, read-out: solo application % activity), 0%; in [11] (Digitaria sanguinalis, post-emergence, 480 h, POST, DIGSA, use rate 1 gai/ha, 20 DAT, read-out: solo application % activity), 10%; in assay [8] (480 h, POST, ECHCG, use rate 1 gai/ha, 20 DAT, read-out: solo application % activity), 5%; in [12] (Euphorbia heterophylla, post-emergence, 480 h, POST, EPHHL, use rate 1 gai/ha, 20 DAT, read-out: solo application % activity), 60%. Moreover, the inhibition at 2 g/ha in [14] (use rate 2 gai/ha) stood at 0%; in assay [15] (use rate 2 gai/ha), 10%; in assay [5] (480 h, PRE, SETVI, use rate 2 gai/ha, 20 DAT, read-out: solo application % activity), 0%; in assay [6] (Abutilon theophrasti, post-emergence, 480 h, POST, ABUTH, use rate 2 gai/ha, 20 DAT, read-out: solo application % activity), 70%; in assay [11] (Digitaria sanguinalis, post-emergence, 480 h, POST, DIGSA, use rate 2 gai/ha, 20 DAT, read-out: solo application % activity), 25%; in assay [8] (480 h, POST, ECHCG, use rate 2 gai/ha, 20 DAT, read-out: solo application % activity) it was 30%. In [9] (480 h, POST, GERPU, use rate 2 gai/ha, 20 DAT, read-out: solo application % activity), the inhibition at 2 g/ha is 45%.
